These results are taken from patent US20250020668A1, “CANCER LESION TISSUE EVALUATION FOR OPTIMIZING EFFECT OF BORON NEUTRON CAPTURE THERAPY” (3-D Matrix, Ltd., priority 2018, published 2025).

The subject of this assay is PABPc1. Description: Immunoprecipitation with anti-BSH antibody from U251 cell crushing solution. As to conditions: 50 μM, FIG. 2 and FIG. 3 combined. It counts as binding. How it is done: To a cell crushing solution of a malignant brain tumor cell line U251, simple BSH (referred to BSH) (50 μM) or BSH-11R (50 μM) was added, and proteins which bind to BSH and BSH-11R were explored by immunoprecipitation with an anti-BSH antibody (10 μg).
To examine whether the binding of BSH-11R to the translation-related factors is a direct or indirect binding, a subline of malignant brain tumor cell line U251 that underwent knockdown of the translation-related factors with shRNA lentivirus was prepared. To the cell crushing solutions, BSH-11R (50 μM) was added, and translation-related factors that bind to BSH-11R were analyzed with an anti-BSH antibody (10 μg).

mercaptoundecahydrodecaborate [BSH]: the “binding to PABPc1” value is given as “binds to BSH in an RNA-dependent manner”.
